Assay results from patent US20250255889A1, “METHODS FOR TREATMENT SELECTION FOR CHRONIC LYMPHOCYTIC LEUKEMIA (CLL)” (The Broad Institute, Inc., priority 2022, published 2025).

Tested on: primary CLL samples (CD19+ and CD5+ cells)
Assay: High-throughput dynamic BH3 profiling (HT-DBP): drug-induced apoptotic priming (delta priming), cytochrome c release after BH3 peptide
Format: cell-based, human
Procedure: By “delta priming” is meant the difference in priming of a cell for apoptosis measured in the presence of an agent for treating chronic lymphocytic leukemia relative to priming of the cell in the presence of an inert carrier. In embodiments, the inert carrier is DMSO.
Dynamic BH3 Profiling Dynamic BH3 profiling (DBP) is a drug screening assay that measures the relative priming of cells in a biological sample for cell death by apoptosis in the presence of a specific compound and/or a pro-apoptotic peptide. By “Dynamic BH3 profiling” is meant measuring drug-induced changes in mitochondrial apoptotic priming. Mitochondrial apoptotic priming is a measure of how close to the apoptotic threshold a cell is. A highly primed cell has relatively less anti-apoptotic binding site availability and is closer to the apoptotic threshold than a poorly primed cell, which has more anti-apoptotic availability to buffer an apoptotic assault and is further from the apoptotic threshold. BH3 peptides derived from the BH3 domain of pro-apoptotic BH3-only proteins provoke a response from viable mitochondria. Cytochrome c released from the mitochondria after a short incubation with BH3 peptide is used as a surrogate for priming. In general, the more sensitive a mitochondrion is to a BH3 peptide, the more primed it is. A drug treatment that enhances priming will cause mitochondria to undergo MOMP more easily when incubated with a fixed concentration of a promiscuously binding BH3 peptide, such as BIM BH3 peptide, compared to control-treated cells. See, for example, Potter, D. S. & Letai, A. To prime, or not to prime: that is the question. Cold Spring Harb. Symp. Quant. Biol. 81, 131-140 (2016); Montero, J. et al. Drug-induced death signaling strategy rapidly predicts cancer response to chemotherapy. Cell 160, 977-989 (2015); Daniels, V. W. et al. Metabolic perturbations sensitize triple-negative breast cancers to apoptosis induced by BH3 mimetics. Sci.
Dynamic BH3 profiling and peptides for use therein are described, for example, in Certo, et al., “Mitochondria primed by death signals determine cellular addiction to antiapoptotic BCL-2 family members,” Cancer Cell, 9:351-365 (2006); and in Foight, et al. “Designed BH3 Peptides with High Affinity and Specificity for Targeting Mcl-1 in Cells,” ACS Chemical Biology, 9:1962-1968 (2014), the disclosures of which are incorporated herein by reference in their entireties for all purposes. The DBP assay enables one to compare the response of a patient tumor sample to a specific drug relative to other drugs and relative to an inert control (e.g., DMSO).
To address the challenge of selecting a proper treatment for a chronic lymphocytic leukemia, experiments were undertaken to optimize high-throughput dynamic BH3 profiling (HT-DBP) for evaluation of the drug sensitivities of CLL samples (FIGS. 1, 13, 5A, 5B, 6A, 6B, and 7A-7C).

[1] = peptide BAD 0.3 uM, feature BIRC3
[2] = peptide BAD 0.3 uM, feature EC-m2
[3] = peptide BAD 0.3 uM, feature FBXW7
[4] = peptide BAD 0.3 uM, feature ITIH2
[5] = peptide BAD 0.3 uM, feature MYD88
[6] = peptide BAD 0.3 uM, feature gain_19p13.3
[7] = peptide BAD 0.3 uM, feature i-CLL
[8] = peptide BAD 0.3 uM, feature loss_3p21.31
[9] = peptide BAD 0.3 uM, feature loss_5p15.33
[10] = peptide BAD 0.3 uM, feature loss_7q36.1
[11] = peptide BAD 0.3 uM, feature loss_8p
[12] = peptide BAD 0.3 uM, feature loss_12p13.31a
[13] = peptide BAD 0.3 uM, feature loss_14q32.12
[14] = peptide BAD 0.3 uM, feature loss_17p13.1
[15] = peptide BAD 0.3 uM, feature loss_17p13.3
[16] = peptide BAD 0.3 uM, feature loss_17q11.2
[17] = peptide BIM 0.01 uM, feature EC-i
[18] = peptide BIM 0.01 uM, feature loss_1p36.11
[19] = peptide BIM 0.01 uM, feature loss_3p13
[20] = peptide BIM 0.01 uM, feature loss_10q24.32
[21] = peptide BIM 0.01 uM, feature loss_18q21.2
[22] = peptide BIM 0.01 uM, feature priortrt_Post
[23] = peptide MS1 2.5 uM, feature EC-m4
[24] = peptide PUMA 1 uM, feature loss_1q21.3
[25] = peptide PUMA 1 uM, feature loss_7p22.2
[26] = peptide BIM 0.01 uM, feature loss_15q15.1b
[27] = peptide BIM 0.01 uM, feature loss_20p11.22
[28] = peptide BAD 0.3 uM, feature priortrt_Post
[29] = peptide PUMA 1 uM, feature priortrt_Post
[30] = peptide BAD 0.3 uM, feature M-CLL
[31] = peptide BAD 0.3 uM, feature U-CLL

## Cc1sc2c(c1C)C(c1ccc(Cl)cc1)=N[C@@H](CC(=O)OC(C)(C)C)c1nnc(C)n1-2 [JQ1]
Feature EC-i
  direction: Sensitive
Feature FBXW7
  direction: Sensitive
[1]
  direction: Sensitive
  dprim_pearson_corr: 0.6355
[2]
  direction: Sensitive
  dprim_pearson_corr: 0.3877
[3]
  direction: Sensitive
  dprim_pearson_corr: 0.5086
[4]
  direction: Sensitive
  dprim_pearson_corr: 0.6355
[5]
  direction: Resistant
  dprim_pearson_corr: −0.3438
[6]
  direction: Sensitive
  dprim_pearson_corr: 0.359
[7]
  direction: Sensitive
  dprim_pearson_corr: 0.3327
[8]
  direction: Resistant
  dprim_pearson_corr: −0.3438
[9]
  direction: Resistant
  dprim_pearson_corr: −0.3996
[10]
  direction: Resistant
  dprim_pearson_corr: −0.3438
[11]
  direction: Resistant
  dprim_pearson_corr: −0.3438
[12]
  direction: Resistant
  dprim_pearson_corr: −0.3996
[13]
  direction: Resistant
  dprim_pearson_corr: −0.3438
[14]
  direction: Sensitive
  dprim_pearson_corr: 0.507
[15]
  direction: Resistant
  dprim_pearson_corr: −0.3996
[16]
  direction: Sensitive
  dprim_pearson_corr: 0.6355
[17]
  direction: Sensitive
  dprim_pearson_corr: 0.3826
[18]
  direction: Sensitive
  dprim_pearson_corr: 0.4365
[19]
  direction: Sensitive
  dprim_pearson_corr: 0.3364
[20]
  direction: Sensitive
  dprim_pearson_corr: 0.4365
[21]
  direction: Sensitive
  dprim_pearson_corr: 0.4365
[22]
  direction: Sensitive
  dprim_pearson_corr: 0.3609
[23]
  direction: Sensitive
  dprim_pearson_corr: 0.3901
Peptide PUMA 1 uM, feature ATM
  direction: Resistant
Peptide PUMA 1 uM, feature EC-i
  direction: Resistant
Peptide PUMA 1 uM, feature MYD88
  direction: Resistant
Peptide PUMA 1 uM, feature gain_16p11.2
  direction: Resistant
Peptide PUMA 1 uM, feature loss_1p36.11
  direction: Sensitive
[24]
  direction: Resistant
Peptide PUMA 1 uM, feature loss_2q31.1
  direction: Resistant
Peptide PUMA 1 uM, feature loss_3p13
  direction: Sensitive
Peptide PUMA 1 uM, feature loss_3p21.31
  direction: Resistant
Peptide PUMA 1 uM, feature loss_5p15.33
  direction: Resistant
[25]
  direction: Resistant
Peptide PUMA 1 uM, feature loss_7q36.1
  direction: Resistant
Peptide PUMA 1 uM, feature loss_8p
  direction: Resistant
Peptide PUMA 1 uM, feature loss_10p12.2
  direction: Resistant
Peptide PUMA 1 uM, feature loss_10q24.32
  direction: Sensitive
Peptide PUMA 1 uM, feature loss_12p13.31a
  direction: Resistant
Peptide PUMA 1 uM, feature loss_14q32.12
  direction: Resistant
Peptide PUMA 1 uM, feature loss_16q22.1
  direction: Resistant
Peptide PUMA 1 uM, feature loss_17p13.3
  direction: Resistant
Peptide PUMA 1 uM, feature loss_18q21.2
  direction: Sensitive

## Nc1cccc2c1CN(C1CCC(=O)NC1=O)C2=O (stereo not drawn) [Lenalidomide]
Peptide BAD 0.3 uM, feature loss_10q24.32
  direction: Resistant
[26]
  direction: Resistant
[27]
  direction: Resistant
Peptide MS1 2.5 uM, feature CNOT3
  direction: Sensitive

## NC1(c2ccc(-c3nc4ccn5c(=O)[nH]nc5c4cc3-c3ccccc3)cc2)CCC1 [MK-2206]
Feature priortrt_Post
  direction: Resistant
Peptide BAD 0.3 uM, feature EC-i
  direction: Resistant
Peptide BAD 0.3 uM, feature IGLV321_R110
  direction: Resistant
Peptide BAD 0.3 uM, feature RPS15
  direction: Resistant
Peptide BAD 0.3 uM, feature loss_6q
  direction: Resistant
[28]
  direction: Resistant
Peptide BIM 0.01 uM, feature BIRC3
  direction: Sensitive
Peptide BIM 0.01 uM, feature ITIH2
  direction: Sensitive
Peptide BIM 0.01 uM, feature loss_9p21.3
  direction: Sensitive
Peptide BIM 0.01 uM, feature loss_17q11.2
  direction: Sensitive
Peptide MS1 2.5 uM, feature EC-i
  direction: Resistant
Peptide MS1 2.5 uM, feature IGLV321_R110
  direction: Resistant
Peptide MS1 2.5 uM, feature RPS15
  direction: Resistant
Peptide MS1 2.5 uM, feature loss_6q
  direction: Resistant
[29]
  direction: Resistant

## CCC[C@H](N[C@H]1CCc2cc(F)cc(F)c2C1)C(=O)Nc1cn(C(C)(C)CNCC(C)(C)C)cn1 [Nirogacestat]
Peptide BAD 0.3 uM, feature loss_1p36.11
  direction: Resistant
Peptide BAD 0.3 uM, feature loss_3p13
  direction: Resistant
Peptide BAD 0.3 uM, feature loss_18q21.2
  direction: Resistant
Peptide BIM 0.01 uM, feature EC-m2
  direction: Sensitive
Peptide BIM 0.01 uM, feature tri_12
  direction: Sensitive
Peptide PUMA 1 uM, feature BIRC3
  direction: Sensitive
[24]
  direction: Sensitive
[25]
  direction: Sensitive
Peptide PUMA 1 uM, feature loss_9p21.3
  direction: Sensitive
Peptide PUMA 1 uM, feature loss_17q11.2
  direction: Sensitive

## COc1ccc(C2=N[C@@H](c3ccc(Cl)cc3)[C@@H](c3ccc(Cl)cc3)N2C(=O)N2CCNC(=O)C2)c(OC(C)C)c1 [Nutlin-3]
EC-m1
  drug-induced apoptotic priming by expression cluster: most sensitive
Feature FBXW7
  direction: Resistant
Feature priortrt_Post
  direction: Resistant
Across CLL subtypes, 65 primary CLL samples, 20 hours drug
  drug-induced apoptotic priming: high priming
[30]
  direction: Sensitive
  dprim_pearson_corr: 0.4093
[31]
  direction: Resistant
  dprim_pearson_corr: −0.4093
[28]
  direction: Resistant
  dprim_pearson_corr: −0.4166
[23]
  direction: Sensitive
  dprim_pearson_corr: 0.3373
Peptide PUMA 1 uM, feature EC-m4
  direction: Sensitive
Peptide PUMA 1 uM, feature FBXW7
  direction: Resistant
Peptide PUMA 1 uM, feature loss_17p13.1
  direction: Resistant
[29]
  direction: Resistant

## CC(C)c1cc(C(=O)N2Cc3ccc(CN4CCN(C)CC4)cc3C2)c(O)cc1O [Onalespib]
Peptide BAD 0.3 uM, feature loss_1q42.13
  direction: Sensitive
Peptide BAD 0.3 uM, feature loss_13q14.13
  direction: Sensitive
Peptide BAD 0.3 uM, feature loss_16p11.2
  direction: Sensitive
[26]
  direction: Resistant
[27]
  direction: Resistant
Peptide MS1 2.5 uM, feature loss_19p13.11
  direction: Sensitive
Peptide PUMA 1 uM, feature loss_6q21
  direction: Resistant
